Measurements as given in publication PMC4623604, “Discovery of Small Molecules that Inhibit the Disordered Protein, p27^Kip1” (Scientific Reports, 2015).

Molecular target: T1, p27-KID (Homo sapiens, UniProt P46527)
T1 construct: 6xHis (N, cleaved yes); made in house; host or cells: E. coli (pET28a)
Assay: NMR fragment screening and 2D 1H-15N HSQC chemical shift perturbation mapping
Type: binding
Parameters: key to Binding Group (site of chemical shift perturbations in p27-KID): Molecules in Group 1 bound to a localized region, F87YY89; molecules in Group 2 bound to this region as well as two others containing two W residues (W60 and W76)
Conditions: 2D 1H-15N HSQC, 100 μM 15N-p27-KID
From the text: We used one-dimensional (1D) ^1H WaterLOGSY[35] and STD[36] […] Fragment molecules were selected from either a commercial library (1,100 compounds from the Ro3 collection, Maybridge/Thermo Fisher Scientific) or an in-house library of 1,222 compounds based on the “Rule of Three”[40] and other criteria (see Methods). […] Binding sites for these compounds were identified by titration into ^15N-p27-KID and analysis of two-dimensional (2D) ^1H-^15N HSQC spectra. […] We termed these molecules Groups 1 and 2, respectively (Fig. 1b,c); representative ^1H CSP histograms are shown in Fig. 1d,e, and ^15N CSPs are presented in Suppl. Fig. 2. Data for all other small molecules are shown in Suppl. Fig. 3.
Screening and validation NMR experiments were performed at 298 K (25 °C) using either a Varian Inova 600 MHz spectrometer equipped with a triple resonance (HCN) room temperature gradient probe or a Bruker Avance 600 MHz spectrometer equipped with TCI cryogenic gradient probe and a SampleJet sample changer. Fragment molecules were initially analyzed as pools of five molecules dissolved at 10 mM each in DMSO-D6. […] For initial fragment screening experiments, one-dimensional (1D) ^1H- and WaterLOGSY[35] NMR spectra were recorded for compound pools without and with protein. […] DMSO-D6 was added to maintain a constant concentration (2% vol/vol). […] Tryptophan and tyrosine, respectively, were titrated into ^15N-p27-KID (100 μM) up to 3 mM. Three-dimensional (3D) backbone triple-resonance experiments to establish resonance assignments for the p27 constructs were performed using the Bruker Avance 600 MHz spectrometer. […] Fig. 12b,c and d,e, respectively. 2D ^1H-^15N TROSY-HSQC NMR experiments with ^2H/^13C/^15N-p27-D2/Cdk2/cyclin A and SJ403 have been recorded at 308 K (35 °C). 2D ^1H-^15N HSQC experiments of representative fragment hits (1 mM of SJ319843, group 1 and SJ403, group 2, respectively) with ^15N-p21-KID (20 μM) were recorded at 298 K using a Bruker Avance 600 MHz spectrometer. NMR spectra were processed using Bruker Topspin software and analyzed using computer-aided resonance assignment (CARA) software.
Chemical shift perturbations are generally quantified as combined ^1H and ^15N chemical shift values. […] Thus, the use of a combined chemical shift values would mask the effects of compound binding. […] Thus, the assessment of statistical significance was based upon whether a particular CSP value was larger than, i) the experimental spectral resolution in the given dimension (^1H or ^15N) and ii) the quantity, Δδave + 2σ, for that dimension.

T1 sequence (P46527 22-105): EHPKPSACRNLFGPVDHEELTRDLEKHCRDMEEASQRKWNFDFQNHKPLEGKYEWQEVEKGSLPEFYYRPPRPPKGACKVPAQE

Binding Group (site of chemical shift perturbations in p27-KID): Group 2
SMILES: CCn1c(C)c(C)n2c3c(=O)n(C)c(=O)n(C)c3nc12 [SJ403]
